Assay results: US20240132484A1, “BROAD SPECTRUM ANTIVIRAL COMPOUNDS TARGETING THE SKI COMPLEX” (priority 2020, published 2024)

System: Influenza virus
Assay: organism not typed
Assay type: cell-based, influenza A virus
Details: for Flu titer (pfu/ml) / Influenza virus titer, 10 μM / Influenza virus titer, 50 μM: plaque assay; for Avg PFU/ml: average of first and second experiment; for Influenza virus titer, 10 μM / Influenza virus titer, 50 μM: upper part of table (FIG. 5 data); for 10 μM treatment, Average / 50 μM treatment Average: average of replicates
[1] = 50 μM compound, replicate 1, DMSO (0.5%) control run per batch

Compound | Flu titer (pfu/ml) (1 μM compound, A549 cells) | Flu titer (pfu/ml) (10 μM compound, A549 cells) | Flu titer (pfu/ml) (50 μM compound, A549 cells) | first experiment (10 μM screen) [PFU/ml] | second experiment (10 μM screen) [PFU/ml] | Avg PFU/ml (10 μM screen) [PFU/ml] | Influenza virus titer, 10 μM (10 μM) [PFU/virus/ml] | first experiment PFU/ml (50 μM screen) [PFU/ml] | second experiment PFU/ml (50 μM screen) [PFU/ml] | Avg PFU/ml (50 μM screen) [PFU/ml] | Influenza virus titer, 50 μM [PFU/virus/ml] | further results
O=C(CN1CC(c2ccccc2)CC1=O)NCc1nnc(SCC2CCCCC2)n1-c1ccc(F)cc1 (stereo not drawn) [Compound 68125364, N-{[5-[(cyclohexylmethyl)thio]-4-(4-fluorophenyl)-4H-1,2,4-triazol-3-yl]methyl}-2-(2-oxo-4-phenyl-1-pyrrolidinyl)acetamide] | 72000 | 62000 | 79000 | – | – | – | – | – | – | – | – | –
COc1ccc(CNCCCSC)c(OCC(O)CN2CCN(C)CC2)c1 (stereo not drawn) [Compound 18-16] | – | – | – | 210000 | 18000 | 114000 | 21000 | 30000 | 2300 | 16150 | 90000 | –
O=C(NC1CCCCCC1)c1cn[nH]c1-c1ccc2c(c1)OCCO2 [UMB98] | – | – | – | – | – | – | – | – | – | – | – | 10 μM treatment, Average: 0; 10 μM treatment (replicate 2): 0; 50 μM treatment Average (50 μM compound): 0; 50 μM treatment [1]: 0; 50 μM treatment (50 μM compound, replicate 2): 0
O=C(CCCc1ccccc1)Nc1cccc(N2CCC(NCCCn3nnc4ccccc43)CC2)c1 [Compound 84256405, N-[3-(4-{[3-(1H-1,2,3-benzotriazol-1-yl)propyl]amino}-1-piperidinyl)phenyl]-4-phenylbutanamide] | 50000 | 140000 | 210000 | – | – | – | – | – | – | – | – | –
COc1ccc(CNCCc2ccccc2F)c(OCC(O)CN2CCN(C)CC2)c1 (stereo not drawn) [UMBCADD-0018, 1-[2-({[2-(2-fluorophenyl)ethyl]amino}methyl)-5-methoxyphenoxy]-3-(4-methyl-1-piperazinyl)-2-propanol] | – | – | – | – | – | – | – | – | – | – | – | inhibition of Influenza virus replication (10 μM, A549 cells): over 20 fold; antiviral activity against IAV infection (screening, A549 cells): effective at 50 μM, 10 μM and 1 μM
CC1=C(C(=O)OC2CCCCCCC2)C(c2ccc3c(c2)OCO3)NC(=O)N1 (stereo not drawn) [UMB115] | – | – | – | – | – | – | – | – | – | – | – | 10 μM treatment, Average: 3500; 10 μM treatment (replicate 2): 5000; 50 μM treatment Average (50 μM compound): 0; 50 μM treatment [1]: 0; 50 μM treatment (50 μM compound, replicate 2): 0
COc1ccc(CNCCCn2cccn2)c(OCC(O)CN2CCN(C)CC2)c1 (stereo not drawn) [Compound 18-13] | – | – | – | 40000 | 20000 | 30000 | 40000 | 80000 | 110000 | 95000 | 80000 | –
COc1ccc(CNCCc2ccccc2C)c(OCC(O)CN2CCN(C)CC2)c1 (stereo not drawn) [Compound 18-2] | – | – | – | 500 | 1900 | 1200 | 500 | 1700 | 100 | 900 | 1700 | –
COc1ccc(CNCCc2ccccc2Cl)c(OCC(O)CN2CCN(C)CC2)c1 (stereo not drawn) [Compound 18-4] | – | – | – | 7000 | 800 | 3900 | 7000 | 1100 | 300 | 700 | 1100 | –
COc1ccc(CNCCc2ccccc2F)c(OCC(O)CN2CCN(C)CC2)c1 (stereo not drawn) [Compound 96509034, 1-[2-({[2-(2-fluorophenyl)ethyl]amino}methyl)-5-methoxyphenoxy]-3-(4-methyl-1-piperazinyl)-2-propanol] | 10000 | 4000 | 5000 | – | – | – | – | – | – | – | – | –
CCc1ccc(OC(C)c2nnc(SCC(=O)Nc3nc(-c4ccccc4)c(C)s3)n2C)cc1 (stereo not drawn) [Compound 7493781, 2-({5-[1-(4-ethylphenoxy)ethyl]-4-methyl-4H-1,2,4-triazol-3-yl}thio)-N-(5-methyl-4-phenyl-1,3-thiazol-2-yl)acetamide] | 75000 | 98000 | 53000 | – | – | – | – | – | – | – | – | –
COCCCNCc1ccc(OC)cc1OCC(O)CN1CCN(C)CC1 (stereo not drawn) [Compound 18-11] | – | – | – | 100000 | 39000 | 69500 | 100000 | 160000 | 31000 | 95500 | 160000 | –
COc1ccc(CNCCCn2ccnc2C)c(OCC(O)CN2CCN(C)CC2)c1 (stereo not drawn) [Compound 18-7] | – | – | – | 240000 | 44000 | 142000 | 240000 | 110000 | 31000 | 70500 | 110000 | –
COc1cc(CNCCC2CCN(C)CC2)ccc1OCC(O)CN(C)C1CCCCC1 (stereo not drawn) [Compound 28236358, 1-[cyclohexyl(methyl)amino]-3-[2-methoxy-4-({[2-(1-methyl-4-piperidinyl)ethyl]amino}methyl)phenoxy]-2-propanol] | 70000 | 70000 | 39000 | – | – | – | – | – | – | – | – | –
